These are literature values, as cited in patent US12527845B2, “Formulations” (Arecor Limited, priority 2016, dated 2026).

For this series the following is noted: 25° C.
On to `N[C@@H](CSSC[C@H](N)C(=O)O)C(=O)O` [cystine], for which the “log K with respect to zinc ion binding” value is listed as 6.67. In the case of `O=C(O)CN(CCOCCOCCN(CC(=O)O)CC(=O)O)CC(=O)O` [EGTA, ethyleneglycoltetraacetate], the “log K with respect to zinc ion binding” value is recorded as 12.6. With `NCCN` [ethylenediamine], the “log K with respect to zinc ion binding” value is 5.69.

As to `NCCNCCN` [DETA, diethylenetriamine], the “log K with respect to zinc ion binding” value was 8.88. As for `N[C@@H](CCC(=O)N[C@@H](CS)C(=O)NCC(=O)O)C(=O)O` [glutathione], the “log K with respect to zinc ion binding” value is recorded as 7.98.

In the case of `NCCNCCNCCN` [TETA, triethylenetetramine], the “log K with respect to zinc ion binding” value is on record as 11.95. On to `O=C(O)CN(CCN(CC(=O)O)CC(=O)O)CC(=O)O` [EDTA, ethylenediaminetetraacetate], for which the “log K with respect to zinc ion binding” value is 14.5. On to `O=C(O)CC(O)(CC(=O)O)C(=O)O` [citrate], for which the “log K with respect to zinc ion binding” value is given as 4.93. `N[C@@H](CS)C(=O)O` [cysteine]: the “log K with respect to zinc ion binding” value is given as 9.11. Turning to `O=P(O)(O)OP(=O)(O)O` [pyrophosphate], the “log K with respect to zinc ion binding” value is recorded as 8.71. Regarding `N[C@@H](CCC(=O)O)C(=O)O` [glutamate], the “log K with respect to zinc ion binding” value is given as 4.62. For `N[C@@H](Cc1c[nH]cn1)C(=O)O` [histidine], the “log K with respect to zinc ion binding” value is given as 6.51.
